{"source": "patent US5124315A", "about": "“Liquid pharmaceutical composition for nasal administration containing a polypeptide as active ingredient” (Phideatech S.R.L., priority 1991, dated 1992)", "conditions": "liquid nasal compositions, common storage conditions", "excerpt": "The present inventors have accordingly conducted extensive researches for finding a suitable stabilizing agent."}
{"molecule": "N.N.O=C(O)C(O)C(O)C(=O)O", "note": "(stereo not shown) [ammonium tartrate]", "values": [{"measurement": "stabilizing activity on liquid compositions containing polypeptides", "value": "satisfactory stabilizing agent"}]}
